Source: patent publication US20260297060A1, “COMPOUNDS FOR THE DEGRADATION OF MUTANT BRAF” (C4 THERAPEUTICS, INC., priority 2023, published 2026)
Like-named read-outs stand apart in the source and are kept apart here.

Columns and labels:
BRAF V600E = target: T1, BRAF V600E (Homo sapiens, UniProt P15056+Q96SW2, V600E); experiment: BRAF V600E HiBiT Degradation Assay; format: cell-based; conditions: A375.10 cells, BRAF V600E
T1 construct: knock-in of the HiBiT tag to the endogenous BRAF V600E locus; host or cells: A375.10 (A375 clonal line, CRISPR HiBiT knock-in at the endogenous BRAF V600E locus)
How it was run: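 Endogenous HiBiT knock-in on BRAF V600E in A375 cells (clone A375.10); 11-point half-log series, top 10 μM, 2, 6 or 24 h at 37° C. Lytic HiBiT luminescence, background-subtracted, normalized to DMSO; 4-parameter fit gives DC50, Emax (residual protein) and IP (inflection point).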

A375-NRAS^Q61K cells = experiment: CTGlo Cell Viability Assay, A375-NRAS^Q61K (A375.11) cells, 96 hours; format: cell-based, human; conditions: A375.11 (A375-NRAS^Q61K) cells; for Emax / CTGlo A375.11 96 hours Emax: lowest % viability achieved
How it was run: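 Viability as CellTiter-Glo ATP luminescence after 96 h compound exposure at 37 °C; A375.11 (BRAF V600E/NRAS Q61K) cells at 250/well, top final concentration 10 μM in half-log steps. Signal was background-corrected and set relative to DMSO controls. A 4-parameter logistic fit gave GI50 (50% crossing) and Emax.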

[1] = 2 hours, residual protein remaining, read-out: HiBiT-Degradation A375.10 BRAF 2 hours Emax
[2] = read-out: HiBiT-Degradation A375.10 BRAF 2 hours DC50, 2 hours
[3] = 2 hours, residual protein remaining
[4] = 2 hours, inflection point, read-out: HiBiT-Degradation A375.10 BRAF 2 hours IP
[5] = 2 hours, read-out: HiBiT-Degradation A375.10 BRAF 2 hours DC50
[6] = HiBiT, 24 hours, read-out: HiBiT-Degradation A375.10 BRAF 24 hours DC50
[7] = HiBiT, 24 hours, read-out: HiBiT-Degradation A375.10 BRAF 24 hours Emax
[8] = HiBiT, 24 hours, read-out: HiBiT-Degradation A375.10 BRAF 24 hours IP

T1 sequence (P15056 whole entry V600E): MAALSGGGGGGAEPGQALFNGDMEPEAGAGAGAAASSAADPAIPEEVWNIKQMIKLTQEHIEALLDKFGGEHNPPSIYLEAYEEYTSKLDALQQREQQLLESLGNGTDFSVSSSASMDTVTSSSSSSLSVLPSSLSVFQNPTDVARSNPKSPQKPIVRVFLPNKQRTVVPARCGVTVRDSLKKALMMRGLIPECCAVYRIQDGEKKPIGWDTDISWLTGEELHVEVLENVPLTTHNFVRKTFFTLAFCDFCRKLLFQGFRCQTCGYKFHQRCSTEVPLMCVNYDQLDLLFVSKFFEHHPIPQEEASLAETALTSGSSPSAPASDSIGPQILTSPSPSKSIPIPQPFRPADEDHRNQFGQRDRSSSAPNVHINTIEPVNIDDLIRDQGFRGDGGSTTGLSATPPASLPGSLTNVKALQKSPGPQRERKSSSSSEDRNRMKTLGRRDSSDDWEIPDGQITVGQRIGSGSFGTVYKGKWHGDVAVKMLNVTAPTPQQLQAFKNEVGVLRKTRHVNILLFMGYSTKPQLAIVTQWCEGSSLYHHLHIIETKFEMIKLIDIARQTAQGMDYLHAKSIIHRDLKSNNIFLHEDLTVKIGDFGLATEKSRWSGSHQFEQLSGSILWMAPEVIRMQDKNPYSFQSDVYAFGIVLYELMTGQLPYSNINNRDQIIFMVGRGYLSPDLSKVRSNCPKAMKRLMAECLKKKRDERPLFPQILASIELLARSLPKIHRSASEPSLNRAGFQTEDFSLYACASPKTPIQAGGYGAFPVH
T1 sequence (Q96SW2 whole entry): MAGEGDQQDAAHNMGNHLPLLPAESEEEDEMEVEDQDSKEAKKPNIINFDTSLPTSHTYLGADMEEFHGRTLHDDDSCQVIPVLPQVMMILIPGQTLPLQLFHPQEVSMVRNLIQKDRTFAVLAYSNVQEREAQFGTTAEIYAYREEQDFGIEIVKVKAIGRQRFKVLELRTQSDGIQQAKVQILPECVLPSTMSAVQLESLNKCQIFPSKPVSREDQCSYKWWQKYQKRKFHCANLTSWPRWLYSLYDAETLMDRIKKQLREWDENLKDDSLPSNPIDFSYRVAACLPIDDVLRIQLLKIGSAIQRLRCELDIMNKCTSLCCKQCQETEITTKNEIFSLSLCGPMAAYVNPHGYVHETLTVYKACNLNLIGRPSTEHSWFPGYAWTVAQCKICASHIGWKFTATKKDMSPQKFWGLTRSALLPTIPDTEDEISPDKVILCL
T1 sequence (Q16531 whole entry partner): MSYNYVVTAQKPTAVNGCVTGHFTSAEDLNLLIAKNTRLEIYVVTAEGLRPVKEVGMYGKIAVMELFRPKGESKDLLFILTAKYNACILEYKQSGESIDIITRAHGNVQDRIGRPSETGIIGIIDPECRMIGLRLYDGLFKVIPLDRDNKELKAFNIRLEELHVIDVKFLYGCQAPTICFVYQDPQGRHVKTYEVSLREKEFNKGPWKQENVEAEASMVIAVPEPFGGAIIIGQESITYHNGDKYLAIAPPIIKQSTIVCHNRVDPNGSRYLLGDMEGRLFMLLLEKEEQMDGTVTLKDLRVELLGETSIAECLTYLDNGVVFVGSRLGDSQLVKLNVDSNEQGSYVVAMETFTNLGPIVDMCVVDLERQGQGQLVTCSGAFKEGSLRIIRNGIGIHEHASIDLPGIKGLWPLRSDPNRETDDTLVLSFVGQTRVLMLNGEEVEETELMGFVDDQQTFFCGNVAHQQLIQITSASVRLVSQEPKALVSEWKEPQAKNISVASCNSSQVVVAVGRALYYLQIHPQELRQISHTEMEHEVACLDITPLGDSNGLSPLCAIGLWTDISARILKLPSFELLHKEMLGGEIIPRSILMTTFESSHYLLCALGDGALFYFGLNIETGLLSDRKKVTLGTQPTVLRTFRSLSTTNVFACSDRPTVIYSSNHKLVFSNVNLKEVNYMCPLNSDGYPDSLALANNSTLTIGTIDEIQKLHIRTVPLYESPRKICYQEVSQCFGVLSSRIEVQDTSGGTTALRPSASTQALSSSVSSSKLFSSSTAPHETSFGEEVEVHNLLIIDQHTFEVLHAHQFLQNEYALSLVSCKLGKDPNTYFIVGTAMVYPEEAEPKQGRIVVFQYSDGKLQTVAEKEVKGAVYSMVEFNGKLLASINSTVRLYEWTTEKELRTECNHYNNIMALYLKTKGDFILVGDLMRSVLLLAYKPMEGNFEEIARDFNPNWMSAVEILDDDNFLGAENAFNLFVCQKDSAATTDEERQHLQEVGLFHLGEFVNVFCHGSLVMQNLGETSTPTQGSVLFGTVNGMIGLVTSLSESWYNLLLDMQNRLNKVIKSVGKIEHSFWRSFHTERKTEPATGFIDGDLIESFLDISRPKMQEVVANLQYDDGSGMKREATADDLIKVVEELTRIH

| SMILES | HiBiT-Degradation A375.10 BRAF 2 hours IP (BRAF V600E; 2 hours, inflection point) | Emax (BRAF V600E; [1]) [%] | DC50 (BRAF V600E; [2]) [nM] | GI50 (A375-NRAS^Q61K cells) [nM] | Emax (A375-NRAS^Q61K cells; Homo sapiens, 96 h) [%] | HiBiT-Degradation A375.10 BRAF 2 hours Emax (BRAF V600E; [3]) | CTGlo A375.11 96 hours Emax (A375-NRAS^Q61K cells) | DC50 (BRAF V600E; [4]) [nM] | DC50 (BRAF V600E; [5]) [nM] | GI50 (A375-NRAS^Q61K cells; Homo sapiens, 96 h) [nM] | HiBiT-Degradation A375.10 BRAF 24 hours Emax (BRAF V600E; HiBiT, 24 hours) | DC50 (BRAF V600E; [6]) [nM] | Emax (BRAF V600E; [7]) [%] | DC50 (BRAF V600E; [8]) [nM] |
| --- | --- | --- | --- | --- | --- | --- | --- | --- | --- | --- | --- | --- | --- | --- |
| CO[C@H]1CCN(S(=O)(=O)Nc2ccc(F)c(Oc3ccc4ncc(C5CC6(CCN(C7CCC(c8cc9c(cc8F)c(N8CCC(=O)NC8=O)nn9C)CC7)CC6)C5)nc4c3)c2C#N)C1 (single isomer, unassigned) [Compound 275] | *** (<=1 μM) | 50 to 90 | < 1000 | > 10000 | 50 to 90 | – | – | – | – | – | – | – | – | – |
| CO[C@H]1CCN(S(=O)(=O)Nc2ccc(F)c(Oc3ccc4ncc(C5CC6(CCN(C7CCC(c8cc9c(cc8F)c(N8CCC(=O)NC8=O)nn9C)CC7)CC6)C5)nc4c3)c2C#N)C1 (single isomer, unassigned) [Compound 276] | *** (<=1 μM) | – | < 1000 | 1000 to 10000 | – | ** (<90% and >50%) | ** (<90% and >50%) | – | – | – | – | – | – | – |
| CCN(C)S(=O)(=O)Nc1ccc(F)c(Oc2ccc3ncc(OC4CC5(C4)CN(C4CCC(c6cc7c(cc6F)c(N6CCC(=O)NC6=O)nn7C)CC4)C5)nc3c2)c1C#N (single isomer, unassigned) [Compound 281, 7-[2-cyano-3-[[ethyl(methyl)sulfamoyl]amino]-6-fluoro-phenoxy]-2-[[2-[4-[3-(2,4-dioxohexahydropyrimidin-1-yl)-5-fluoro-1-methyl-indazol-6-yl]cyclohexyl]-2-azaspiro[3.3]heptan-6-yl]oxy]quinoxaline] | – | 50 to 90 | – | – | < 50 | – | – | < 1000 | > 10000 | < 1000 | – | – | – | – |
| CCN(C)S(=O)(=O)Nc1ccc(F)c(Oc2ccc3ncc(OC4CC5(C4)CN(C4CCC(c6cc7c(cc6F)c(N6CCC(=O)NC6=O)nn7C)CC4)C5)nc3c2)c1C#N (single isomer, unassigned) [Compound 282, 7-[2-cyano-3-[[ethyl(methyl)sulfamoyl]amino]-6-fluoro-phenoxy]-2-[[2-[4-[3-(2,4-dioxohexahydropyrimidin-1-yl)-5-fluoro-1-methyl-indazol-6-yl]cyclohexyl]-2-azaspiro[3.3]heptan-6-yl]oxy]quinoxaline] | – | – | – | < 1000 | – | ** (<90% and >50%) | *** (<=50%) | < 1000 | < 1000 | – | – | – | – | – |
| CO[C@@H]1CCN(S(=O)(=O)Nc2ccc(F)c(Oc3ccc4ncc(C5CC6(CCN(C7CCC(c8cc9c(cc8F)c(N8CCC(=O)NC8=O)nn9C)CC7)CC6)C5)nc4c3)c2C#N)C1 (single isomer, unassigned) [Compound 284] | – | < 50 | – | – | < 50 | – | – | < 1000 | < 1000 | < 1000 | – | – | – | – |
| CO[C@@H]1CCN(S(=O)(=O)Nc2ccc(F)c(Oc3ccc4ncc(C5CC6(CCN(C7CCC(c8cc9c(cc8F)c(N8CCC(=O)NC8=O)nn9C)CC7)CC6)C5)nc4c3)c2C#N)C1 (single isomer, unassigned) [Compound 285] | – | – | – | < 1000 | – | – | – | – | < 1000 | – | – | – | – | – |
| CCN(C)S(=O)(=O)Nc1ccc(F)c(Oc2ccc3ncn([C@@H]4CO[C@@]5(CCN(C6CCC(c7cc8c(cc7F)c(N7CCC(=O)NC7=O)nn8C)CC6)C5)C4)c(=O)c3c2)c1C#N (single isomer, unassigned) [Compound 286] | – | < 50 | – | – | < 50 | – | – | < 1000 | < 1000 | < 1000 | *** (<=50%) | – | – | – |
| CCN(C)S(=O)(=O)Nc1ccc(F)c(Oc2ccc3ncn([C@@H]4CO[C@@]5(CCN(C6CCC(c7cc8c(cc7F)c(N7CCC(=O)NC7=O)nn8C)CC6)C5)C4)c(=O)c3c2)c1C#N (single isomer, unassigned) [Compound 287] | – | – | – | < 1000 | – | *** (<=50%) | *** (<=50%) | – | – | – | – | < 1000 | < 50 | < 1000 |
| CCN(C)S(=O)(=O)Nc1ccc(F)c(Oc2ccc3ncn([C@H]4CO[C@]5(CCN(C6CCC(c7cc8c(cc7F)c(N7CCC(=O)NC7=O)nn8C)CC6)C5)C4)c(=O)c3c2)c1C#N (single isomer, unassigned) [Compound 288] | – | 50 to 90 | – | > 10000 | 50 to 90 | – | – | < 1000 | 1000 to 10000 | – | – | – | – | – |
| CCN(C)S(=O)(=O)Nc1ccc(F)c(Oc2ccc3ncn([C@H]4CO[C@]5(CCN(C6CCC(c7cc8c(cc7F)c(N7CCC(=O)NC7=O)nn8C)CC6)C5)C4)c(=O)c3c2)c1C#N (single isomer, unassigned) [Compound 289] | – | – | – | < 1000 | – | *** (<=50%) | *** (<=50%) | < 1000 | < 1000 | – | – | < 1000 | < 50 | < 1000 |
| CCN(C)S(=O)(=O)Nc1ccc(F)c(Oc2ccc3ncn([C@@H]4CO[C@]5(CCN(C6CCC(c7cc8c(cc7F)c(N7CCC(=O)NC7=O)nn8C)CC6)C5)C4)c(=O)c3c2)c1C#N (single isomer, unassigned) [Compound 290] | – | 50 to 90 | – | > 10000 | – | – | ** (<90% and >50%) | < 1000 | 1000 to 10000 | – | – | – | – | – |
| CCN(C)S(=O)(=O)Nc1ccc(F)c(Oc2ccc3ncn([C@@H]4CO[C@]5(CCN(C6CCC(c7cc8c(cc7F)c(N7CCC(=O)NC7=O)nn8C)CC6)C5)C4)c(=O)c3c2)c1C#N (single isomer, unassigned) [Compound 291] | – | – | – | 1000 to 10000 | – | ** (<90% and >50%) | * (>=90%) | < 1000 | > 10000 | – | – | – | – | – |
| CCN(C)S(=O)(=O)Nc1ccc(F)c(Oc2ccc3ncn([C@H]4CO[C@@]5(CCN(C6CCC(c7cc8c(cc7F)c(N7CCC(=O)NC7=O)nn8C)CC6)C5)C4)c(=O)c3c2)c1C#N (single isomer, unassigned) [Compound 292] | – | < 50 | – | – | 50 to 90 | – | – | < 1000 | < 1000 | < 1000 | – | < 1000 | < 50 | < 1000 |
| CCN(C)S(=O)(=O)Nc1ccc(F)c(Oc2ccc3ncn([C@H]4CO[C@@]5(CCN(C6CCC(c7cc8c(cc7F)c(N7CCC(=O)NC7=O)nn8C)CC6)C5)C4)c(=O)c3c2)c1C#N (single isomer, unassigned) [Compound 293] | – | – | – | < 1000 | – | *** (<=50%) | ** (<90% and >50%) | – | < 1000 | – | – | – | – | – |
| CN(CCO)S(=O)(=O)Nc1ccc(F)c(Oc2ccc3ncc(C4CC5(CCN(C6CCC(c7cc8c(cc7F)c(N7CCC(=O)NC7=O)nn8C)CC6)CC5)C4)nc3c2)c1C#N (single isomer, unassigned) [Compound 294, 7-[2-cyano-6-fluoro-3-[[2-hydroxyethyl(methyl)sulfamoyl]amino]phenoxy]-2-[7-[4-[3-(2,4-dioxohexahydropyrimidin-1-yl)-5-fluoro-1-methyl-indazol-6-yl]cyclohexyl]-7-azaspiro[3.5]nonan-2-yl]quinoxaline] | – | 50 to 90 | – | – | – | – | ** (<90% and >50%) | < 1000 | < 1000 | 1000 to 10000 | – | – | – | – |
